The subject of assay [1] is vascular endothelial cells. The settings on record: cited from earlier work.
The subject of assay [2] is normal human umbilical cord vein vascular endothelial cells and normal human skin fibroblasts. In words: Measurement of angiogenesis acceleration action (in vitro), hollow organ formation, Example 9. Format: cell-based. The following applies: 10 ng/ml; 10 days of culturing; FIG. 5. As for the experimental part:
An angiogenesis kit (manufactured by Kurabo; constituted from normal human umbilical cord vein vascular endothelial cells and normal human skin fibroblasts) was cultured for 3 hours, and then the culture medium (the medium for angiogenesis use attached to the angiogenesis kit was used as the culture medium and cultured at 37° C. under a moist environment of 5% carbon dioxide-95% air, and a carbon dioxide incubator BNA-121D was used as the incubator) was changed and an agent to be tested was added to each well (0.5 ml/well). The medium exchange was carried out also on the 3rd, 6th and 8th days after commencement of the culturing and the fresh agent to be tested was added. The kind and concentration of the agent to be tested were untreated; DMSO: 0.1%; α-CD: 0.0118, 0.118 and 1.18 mg/ml; PGE2-αCD: 1, 10 and 100 nmol/l; Compound 3 (EP2 agonist), Compound 4 (EP4 agonist), EP1 agonist and EP3 agonist: 1, 10 and 100 nmol/l, VEGF: 0.1, 1 and 10 ng/ml; and HGF: 0.1, 1 and 10 ng/ml, and culturing was carried out by using 3 wells for each concentration. Fixation was carried out 10 days after the commencement of culturing, and staining of hollow organ with anti-CD31 antibody was carried out by using a hollow organ staining kit (manufactured by Kurabo). As the evaluation, Chalkley Grid (a grid lens, Kurabo) was mounted on the eyepiece of a microscope, and the hollow organ formation was evaluated by counting intersections of the randomly arrange points of Chalkley Grid with the formed hollow organ (by referring to the evaluation method of J. Pathol., 177, 275-283 (1995)). The counting was carried out at 12 positions per well, and the total was calculated.
In this connection, Compound 3 as an EP2 agonist ((5Z,9β,11α,13E)-17,17-propano-11,16-dihydroxy-9-chloro-20-norprost-5,13-dienoic acid) was dissolved in dimethyl sulfoxide (DMSO) to prepare 10^−4, 10^−5 and 10^−6 mol/l solutions which were then used by diluting 1/1000 time with the culture medium.
Compound 4 as an EP4 agonist ((11α,13E,15α)-9-oxo-11,15-dihydroxy-16-(3-methoxymethylphenyl)-17,18,19,20-tetranor-5-thiaprost-13-enoic acid) was dissolved in dimethyl sulfoxide (DMSO) to prepare 10^−4, 10^−5 and 10^−6 mol/l solutions which were then used by diluting 1/1000 time with the culture medium.
The EP1 agonist ((13E)-(11α,15S,17S)-2,5-ethano-6,9-dioxo-11,15-dihydroxy-17,20-dimethylprost-13-enoic acid; the compound described in Example 1 in the specification of JP-A-11-322709) was dissolved in dimethyl sulfoxide (DMSO) to prepare 10^−4, 10^−5 and 10^−6 mol/l solutions which were then used by diluting 1/1000 time with the culture medium.
The EP3 agonist (11α,15α-dimethoxy-9-oxoprost-5Z,13E-dienoic acid; the compound described in Example 1 in the specification of WO98/34916) was dissolved in dimethyl sulfoxide (DMSO) to prepare 10^−4, 10^−5 and 10^−6 mol/l solutions which were then used by diluting 1/1000 time with the culture medium.
The PGE2-αCD was dissolved in distilled water for injection to prepare 10^−4, 10^−5 and 10^−6 mol/l solutions which were then used by diluting 1/1000 time with the culture medium.
As the VEGF (vascular endothelial growth factor), the 2 μg/ml solution of VEGF contained in the angiogenesis control reagent kit of Kurabo was diluted with the culture medium and used.
As the HGF (human hepatocyte growth factor), the 5 μg/ml solution of HGF purchased from R & D System-Funakoshi was diluted with the culture medium and used.
The counts of hollow organ formation in the untreated wells were compared with those of the wells treated with respective concentrations of test samples by Dunnett's test (two-sided test). The significance level was set to 5%.
In this connection, the data were shown by average value of 3 wells and standard deviation.

The test system is the same in assay [3]. In words: Measurement of angiogenesis acceleration action (in vitro), hollow organ formation, Example 1. Format: cell-based. The settings on record: 10 ng/ml; 10 days of culturing; FIG. 1. As for the experimental part:
An angiogenesis kit (manufactured by Kurabo; constituted from normal human umbilical cord vein vascular endothelial cells and normal human skin fibroblasts) was cultured for 3 hours, and then the culture medium (the medium for angiogenesis use attached to the angiogenesis kit was used as the culture medium and cultured at 37° C. under a moist environment of 5% carbon dioxide-95% air, and a carbon dioxide incubator BNA-121D was used as the incubator) was changed and an agent to be tested was added to each well (0.5 ml/well). The medium exchange was carried out also on the 3rd, 6th and 8th days after commencement of the culturing and the fresh agent to be tested was added. The kind and concentration of the agent to be tested were untreated, solvent (DMSO) 0.1%, Compound 1 10^−9, 10^−8 and 10^−7 mol/l, VEGF-A 0.1, 1 and 10 ng/ml and HGF 0.1, 1 and 10 ng/ml, and the culturing was carried out by using 3 wells for each concentration. Fixation was carried out 10 days after the commencement of culturing, and staining of hollow organ with anti-CD31 antibody was carried out by using a hollow organ staining kit (manufactured by Kurabo). As the evaluation, Chalkley Grid (a grid lens, manufactured by Kurabo) was mounted on the eyepiece of a microscope, and the hollow organ formation was evaluated by counting intersections of the randomly arrange points of Chalkley Grid with the formed hollow organ (by referring to the evaluation method of J. Pathol., 177, 275-283 (1995)). The counting was carried out at 12 positions per well, and the total was calculated.
As the agent to be tested, Compound 1 ((E)-[5-[2-[1-phenyl-1-(3-pyridyl)methylideneaminoxy]ethyl]-7,8-dihydronaphthalen-1-yloxy]acetic acid) was dissolved in dimethyl sulfoxide (DMSO) to prepare 10^−4, 10^−5 and 10^−6 mol/l solutions which were then used by diluting 1/1000 time with the culture medium.
As the VEGF-A (vascular endothelial growth factor-A), the 2 μg/ml solution of VEGF contained in the angiogenesis control reagent kit of Kurabo was diluted with the culture medium and used. […]

Counter-ions that a name gives are not always drawn.

On to `CC#CCC(C)[C@H](O)/C=C/[C@@H]1[C@H]2c3cccc(CCCC(=O)O)c3O[C@H]2C[C@H]1O` (mixture of isomers) [Beraprost, (±)-(1R,2R,3aS,8bS)-2,3,3a,8b-terahydro-2-hydroxy-1-[(E)-(3S,4RS)-3-hydroxy-4-methyl-1-octen-6-ynyl]-1H-cyclopenta[b]benzofuran-5-butanoic acid sodium salt], for which the “endothelial cell growth action, in words” value in assay [1] (in vitro) is given as “shows endothelial cell growth action”. The “HGF production, in words” value in assay [1] (vascular endothelial cells in vitro) is listed as “increases HGF production in vascular endothelial cells in vitro”.
For “HGF: human hepatocyte growth factor purchased from R & D System-Funakoshi; positive control agent”, the “hollow organ formation (Chalkley Grid count), in words” value in assay [2] and in assay [3] was “accelerated hollow organ formation” in each case.
